Read-outs that look alike come from different tables or passages of the source.
Experiments:
[1] = footnote of Table 2, cited from earlier work
[2] = solubility of HDTC in alcohols; format: physicochemical; conditions: alcohols (methanol, ethanol and isopropanol)
Procedure: The HDTC may be made by any of the methods known to those in the art. One relatively simple method for producing HDTC in quantitative yields is to react carbon disulfide with hydrazine in a molar ratio of 1:2 in an alcohol at 0°-30° C. Appropriate alcohols include methanol, ethanol and isopropanol. […] If hydrazine hydrate is used to produce the HDTC, the water present in the alcohol upon completion of the reaction may be removed by distillation.

Row | Structure (SMILES) | pKb ([1]; pKb) | pKb ([1]; second printed pKb) | solubility in alcohols [2]
1 | C1CN2CCN1CC2 [DABCO, diazabicyclooctane] | 3.0 | 8.7 | –
2 | CN(C)c1ccncc1 [DMAP, dimethylaminopyridine] | 4.3 | – | –
3 | NNC(=S)S [HDTC, Hydrazinium-dithiocarbazinate] | – | – | virtually insoluble
4 | CCN(CC)CC [TEA, triethylamine] | 3.35 | – | –

— US4946995A, “Process for the production of thiocarbohydrazide” (Mobay Corporation, priority 1989, dated 1990)
